Laboratory results published in ChEMBL document CHEMBL1201862, “PubChem BioAssay data set” (2004).
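How tested: cells in 96-well plates exposed to compound for 48 hours at five concentrations. Abbreviation: GI50, concentration required for 50% inhibition of growth.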 Calls of active or inactive are those of the source. No stated cut-off is given here; in the data, active = GI50 up to about 1.1 µM and inactive = higher. Where a SMILES comes first, the peptide text is derived from it. [ ]: non-standard residue; d: D form. The star is where a group is joined. NMeF = CN[CH](Cc1ccccc1)C(=O)O; NMeV = CN[CH](C(=O)O)C(C)C; Boc = CC(C)(C)OC(=O)*; OBn = c1ccc(CO*)cc1

Tests used:
Test in all cases: NCI-60 cell line screen, 48 h
[1] = test system: ACHN
[2] = test system: CCRF-CEM
[3] = test system: HL-60
[4] = test system: IGROV-1
[5] = test system: K562
[6] = test system: LOX IMVI
[7] = test system: Malme-3M
[8] = test system: NCI-H23
[9] = test system: SF-268
[10] = test system: SK-MEL-2
[11] = test system: SN12C
[12] = test system: SNB-19
[13] = test system: SNB-75
[14] = test system: SW-620
[15] = test system: U-251
[16] = test system: UO-31
[17] = test system: HCC 2998

SMILES	GI50 [1]	GI50 [2]	GI50 [3]	GI50 [4]	GI50 [5]	GI50 [6]	GI50 [7]	GI50 [8]	GI50 [9]	GI50 [10]	GI50 [11]	GI50 [12]	GI50 [13]	GI50 [14]	GI50 [15]	GI50 [16]	GI50 [17]
CCC1(CC)C(=O)NC(=O)NC1=S	> 100 µM (inactive)	> 100 µM (inactive)	> 100 µM (inactive)	> 100 µM (inactive)	> 100 µM (inactive)	> 100 µM (inactive)	> 100 µM (inactive)	> 100 µM (inactive)	> 100 µM (inactive)	> 100 µM (inactive)	> 100 µM (inactive)	> 100 µM (inactive)	> 100 µM (inactive)	> 100 µM (inactive)	> 100 µM (inactive)	> 100 µM (inactive)	
c1ccc(CNn2nnc3ccccc32)cc1	> 100 µM (inactive)	> 100 µM (inactive)	> 100 µM (inactive)	> 100 µM (inactive)	> 100 µM (inactive)	> 100 µM (inactive)	> 100 µM (inactive)	> 100 µM (inactive)	> 100 µM (inactive)	> 100 µM (inactive)	> 100 µM (inactive)	> 100 µM (inactive)	> 100 µM (inactive)	> 100 µM (inactive)		> 100 µM (inactive)	> 100 µM (inactive)
O=c1c2c(c1=O)-c1ccccc1CN2	> 100 µM (inactive)	> 100 µM (inactive)	> 100 µM (inactive)	> 100 µM (inactive)	> 100 µM (inactive)	> 100 µM (inactive)	> 100 µM (inactive)	> 100 µM (inactive)	> 100 µM (inactive)	> 100 µM (inactive)	> 100 µM (inactive)	> 100 µM (inactive)	> 100 µM (inactive)	> 100 µM (inactive)	> 100 µM (inactive)	> 100 µM (inactive)	> 100 µM (inactive)
CC(C)OP(=O)(OC(C)C)/C(=N/Nc1ccccc1[N+](=O)[O-])NCCN/C(=N\Nc1ccccc1[N+](=O)[O-])P(=O)(OC(C)C)OC(C)C	30.1 µM (inactive)	22.2 µM (inactive)	23.7 µM (inactive)	27.9 µM (inactive)	35.3 µM (inactive)	30.2 µM (inactive)	23.1 µM (inactive)	14.5 µM (inactive)	67.1 µM (inactive)	19.6 µM (inactive)	43.7 µM (inactive)	38 µM (inactive)	89.3 µM (inactive)	35.5 µM (inactive)	29.6 µM (inactive)	29.3 µM (inactive)	39.4 µM (inactive)
COc1ccc([C@@H]2CC(=O)NCCCNCCCCNCCCN2)cc1	> 100 µM (inactive)	> 100 µM (inactive)	> 100 µM (inactive)	> 100 µM (inactive)	> 100 µM (inactive)		> 100 µM (inactive)	> 100 µM (inactive)	> 100 µM (inactive)	> 100 µM (inactive)	> 100 µM (inactive)	> 100 µM (inactive)	> 100 µM (inactive)	> 100 µM (inactive)	> 100 µM (inactive)	> 100 µM (inactive)	> 100 µM (inactive)
[O-][n+]1c2c([n+]([O-])c3ccccc31)CCCCCCCCCC2	> 100 µM (inactive)	85.7 µM (inactive)	44.1 µM (inactive)	> 100 µM (inactive)	69.7 µM (inactive)	> 100 µM (inactive)	> 100 µM (inactive)	> 100 µM (inactive)	> 100 µM (inactive)	> 100 µM (inactive)	> 100 µM (inactive)	> 100 µM (inactive)	> 100 µM (inactive)	> 100 µM (inactive)	> 100 µM (inactive)	> 100 µM (inactive)	
O=P1(Oc2ccccc2)C(c2ccccc2)C(c2ccccc2)=NN1c1ccccc1 (stereo not drawn)	24.5 µM (inactive)	30.4 µM (inactive)	15.8 µM (inactive)	26.2 µM (inactive)	24.8 µM (inactive)	17.3 µM (inactive)	43.7 µM (inactive)	22.8 µM (inactive)	29.4 µM (inactive)	15.9 µM (inactive)	25.9 µM (inactive)	34.9 µM (inactive)	30 µM (inactive)	21.5 µM (inactive)	18 µM (inactive)		28.8 µM (inactive)
O=C(O)c1ccc(C2C3C=CC(C3)C2[N+](=O)[O-])cc1 (stereo not drawn)		> 100 µM (inactive)	> 100 µM (inactive)	> 100 µM (inactive)	> 100 µM (inactive)	> 100 µM (inactive)	> 100 µM (inactive)	> 100 µM (inactive)	> 100 µM (inactive)	> 100 µM (inactive)	> 100 µM (inactive)	> 100 µM (inactive)	91.2 µM (inactive)	> 100 µM (inactive)	> 100 µM (inactive)	> 100 µM (inactive)	> 100 µM (inactive)
C=C(NC(=O)C(=C)NC(=O)c1csc(C2=NC3c4csc(n4)C4NC(=O)c5csc(n5)C(C(C)(O)C(C)O)NC(=O)C5CSC(=N5)/C(=C/C)NC(=O)C(C(C)O)NC(=O)c5csc(n5)C3(CC2)NC(=O)C(C)NC(=O)C(=C)NC(=O)C(C)NC(=O)C(C(C)CC)NC2C=Cc3c(C(C)O)cc(nc3C2O)C(=O)OC4C)n1)C(N)=O (stereo not drawn)	2.32 µM (inactive)	0.297 µM (active)	2.69 µM (inactive)	9.06 µM (inactive)	0.726 µM (active)	1.08 µM (active)	1.63 µM (inactive)	2.79 µM (inactive)		1.65 µM (inactive)	1.94 µM (inactive)	2.69 µM (inactive)	1.82 µM (inactive)	0.412 µM (active)	1.57 µM (inactive)	> 78.3 µM (inactive)	6.67 µM (inactive)
O=Cc1ccccc1COC(=O)c1cc(C(=O)OCc2ccccc2C=O)c(C(=O)OCc2ccccc2C=O)cc1C(=O)OCc1ccccc1C=O	> 100 µM (inactive)	43.4 µM (inactive)	38.2 µM (inactive)	> 100 µM (inactive)	39.8 µM (inactive)	42 µM (inactive)	> 100 µM (inactive)	> 100 µM (inactive)	69.2 µM (inactive)	82.2 µM (inactive)	> 100 µM (inactive)	> 100 µM (inactive)	21.5 µM (inactive)	> 100 µM (inactive)	47.1 µM (inactive)	> 100 µM (inactive)	> 100 µM (inactive)
Cc1c(C)c([N+](=O)[O-])c2c(c1N)C(=O)c1ccccc1C2=O	> 100 µM (inactive)	> 100 µM (inactive)	> 100 µM (inactive)	> 100 µM (inactive)	> 100 µM (inactive)	> 100 µM (inactive)	> 100 µM (inactive)	> 100 µM (inactive)	> 100 µM (inactive)	> 100 µM (inactive)	> 100 µM (inactive)	> 100 µM (inactive)	> 100 µM (inactive)	> 100 µM (inactive)	> 100 µM (inactive)	> 100 µM (inactive)	> 100 µM (inactive)
CC(=O)O[C@]12CCCC1C1(O)C(O)CCCC12 (stereo partly drawn)	> 100 µM (inactive)	> 100 µM (inactive)	> 100 µM (inactive)		> 100 µM (inactive)	> 100 µM (inactive)	> 100 µM (inactive)	> 100 µM (inactive)	> 100 µM (inactive)	> 100 µM (inactive)	> 100 µM (inactive)	> 100 µM (inactive)	> 100 µM (inactive)	> 100 µM (inactive)	> 100 µM (inactive)	> 100 µM (inactive)	
O=C1C2c3[nH]c4ccccc4c3C3CCCCC3C2C(=O)N1c1ccccc1 (stereo not drawn)	99.3 µM (inactive)	85.1 µM (inactive)	> 100 µM (inactive)	72.1 µM (inactive)	63.8 µM (inactive)	> 100 µM (inactive)	> 100 µM (inactive)	> 100 µM (inactive)	72.9 µM (inactive)		> 100 µM (inactive)	84.1 µM (inactive)	11.3 µM (inactive)	> 100 µM (inactive)	> 100 µM (inactive)	> 100 µM (inactive)	> 100 µM (inactive)
Cc1nc(-c2cccnc2)sc1C(=O)/C=C/c1ccc(Cl)cc1Cl	> 100 µM (inactive)	47.5 µM (inactive)	51.3 µM (inactive)	> 100 µM (inactive)	76.4 µM (inactive)	95.3 µM (inactive)	> 100 µM (inactive)	> 100 µM (inactive)	> 100 µM (inactive)	> 100 µM (inactive)	> 100 µM (inactive)		92.9 µM (inactive)	71.9 µM (inactive)	> 100 µM (inactive)	> 100 µM (inactive)	> 100 µM (inactive)
O=c1ncccn1C1OC(CO)C(O)C1O (stereo not drawn)	> 100 µM (inactive)	> 100 µM (inactive)		> 100 µM (inactive)	> 100 µM (inactive)	> 100 µM (inactive)	> 100 µM (inactive)	> 100 µM (inactive)	> 100 µM (inactive)	> 100 µM (inactive)	> 100 µM (inactive)	91.8 µM (inactive)	> 100 µM (inactive)	> 100 µM (inactive)	> 100 µM (inactive)	> 100 µM (inactive)	> 100 µM (inactive)
CC(C)C(NC(=O)OC(C)(C)C)C(=O)N(C)C(Cc1ccccc1)C(=O)N(C)C(C(=O)N(C)C(C(=O)OCc1ccccc1)C(C)C)C(C)C (stereo not drawn) (Boc-V[NMeF][NMeV][NMeV]-OBn; configuration not given here)	26.4 µM (inactive)	48.5 µM (inactive)	> 100 µM (inactive)	> 100 µM (inactive)	> 100 µM (inactive)	> 100 µM (inactive)	24.8 µM (inactive)	> 100 µM (inactive)	> 100 µM (inactive)		> 100 µM (inactive)	> 100 µM (inactive)		> 100 µM (inactive)	> 100 µM (inactive)	> 100 µM (inactive)	44.2 µM (inactive)
